Laboratory results reported in PubChem BioAssay (NCI).
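At the GI50, growth is halved. Definition used: TGI = concentration required for complete inhibition of growth.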

Tests used:
Assay in all cases: NCI-60 cell line screen, 384-well format
786-0 renal = tested on: 786-0 renal
A498 renal = tested on: A498 renal
A549 NSCLC = tested on: A549 NSCLC
ACHN renal = tested on: ACHN renal
BT-549 breast = tested on: BT-549 breast
CAKI-1 renal = tested on: CAKI-1 renal
COLO 205 colon = tested on: COLO 205 colon
DU-145 prostate = tested on: DU-145 prostate
EKVX NSCLC = tested on: EKVX NSCLC
HCC-2998 colon = tested on: HCC-2998 colon
HCT-116 colon = tested on: HCT-116 colon
HCT-15 colon = tested on: HCT-15 colon
HL-60(TB) leukemia = tested on: HL-60(TB) leukemia
HOP-62 NSCLC = tested on: HOP-62 NSCLC
HOP-92 NSCLC = tested on: HOP-92 NSCLC
HS 578T breast = tested on: HS 578T breast
HT29 colon = tested on: HT29 colon
IGROV1 ovarian = tested on: IGROV1 ovarian
KM12 colon = tested on: KM12 colon
LOX IMVI melanoma = tested on: LOX IMVI melanoma
M14 melanoma = tested on: M14 melanoma
MALME-3M melanoma = tested on: MALME-3M melanoma
MCF7 breast = tested on: MCF7 breast
MDA-MB-231 breast = tested on: MDA-MB-231 breast
MDA-MB-435 melanoma = tested on: MDA-MB-435 melanoma
MDA-MB-468 breast = tested on: MDA-MB-468 breast
MOLT-4 leukemia = tested on: MOLT-4 leukemia
NCI-H226 lung = tested on: NCI-H226 lung
NCI-H23 lung = tested on: NCI-H23 lung
NCI-H322M lung = tested on: NCI-H322M lung
NCI-H460 NSCLC = tested on: NCI-H460 NSCLC
NCI-H522 lung = tested on: NCI-H522 lung
NCI/ADR-RES ovarian = tested on: NCI/ADR-RES ovarian
OVCAR-3 ovarian = tested on: OVCAR-3 ovarian
OVCAR-4 ovarian = tested on: OVCAR-4 ovarian
OVCAR-5 ovarian = tested on: OVCAR-5 ovarian
OVCAR-8 ovarian = tested on: OVCAR-8 ovarian
PC-3 prostate = tested on: PC-3 prostate
RPMI-8226 leukemia = tested on: RPMI-8226 leukemia
RXF 393 renal = tested on: RXF 393 renal
SF-268 CNS = tested on: SF-268 CNS
SF-295 CNS = tested on: SF-295 CNS
SF-539 CNS = tested on: SF-539 CNS
SK-MEL-28 melanoma = tested on: SK-MEL-28 melanoma
SK-MEL-5 melanoma = tested on: SK-MEL-5 melanoma
SK-OV-3 ovarian = tested on: SK-OV-3 ovarian
SN12C renal = tested on: SN12C renal
SNB-19 CNS = tested on: SNB-19 CNS
SNB-75 CNS = tested on: SNB-75 CNS
SR leukemia = tested on: SR leukemia
SW-620 colon = tested on: SW-620 colon
T-47D breast = tested on: T-47D breast
TK-10 renal = tested on: TK-10 renal
U251 glioblastoma = tested on: U251 glioblastoma
UACC-257 melanoma = tested on: UACC-257 melanoma
UACC-62 melanoma = tested on: UACC-62 melanoma
UO-31 renal = tested on: UO-31 renal

With CC(C)C[C@H](NC(=O)[C@H](CCc1ccccc1)NC(=O)CN1CCOCC1)C(=O)N[C@@H](Cc1ccccc1)C(=O)N[C@@H](CC(C)C)C(=O)[C@@]1(C)CO1 the GI50 (786-0 renal) was < 10 nM, the TGI (786-0 renal) was 16.5 nM and the GI50 (A498 renal) was < 10 nM. For the same compound, the TGI (A498 renal) was 24.5 nM, the GI50 (A549 NSCLC) was < 10 nM and the TGI (A549 NSCLC) was 25.7 nM. The GI50 (ACHN renal) was 33.2 nM, the TGI (ACHN renal) was 109 nM and the GI50 (BT-549 breast) was < 10 nM. For the same compound, the TGI (BT-549 breast) was < 10 nM, the GI50 (CAKI-1 renal) was 17.6 nM and the TGI (CAKI-1 renal) was 53.9 nM. The GI50 (COLO 205 colon) was 28.3 nM, the TGI (COLO 205 colon) was 105 nM and the GI50 (DU-145 prostate) was < 10 nM. For the same compound, the TGI (DU-145 prostate) was 19.5 nM, the GI50 (EKVX NSCLC) was 13.1 nM and the TGI (EKVX NSCLC) was 36.2 nM. For the same compound, the GI50 (HCC-2998 colon) was < 10 nM, the TGI (HCC-2998 colon) was 14 nM and the GI50 (HCT-116 colon) was < 10 nM. For the same compound, the TGI (HCT-116 colon) was < 10 nM, the GI50 (HCT-15 colon) was 23.9 nM and the TGI (HCT-15 colon) was 86.9 nM. For the same compound, the GI50 (HL-60(TB) leukemia) was < 10 nM, the TGI (HL-60(TB) leukemia) was < 10 nM and the GI50 (HOP-62 NSCLC) was < 10 nM. For the same compound, the TGI (HOP-62 NSCLC) was < 10 nM, the GI50 (HOP-92 NSCLC) was 11.6 nM and the TGI (HOP-92 NSCLC) was 24.3 nM. The GI50 (HS 578T breast) was < 10 nM, the TGI (HS 578T breast) was < 10 nM and the GI50 (HT29 colon) was < 10 nM. The TGI (HT29 colon) was < 10 nM, the GI50 (IGROV1 ovarian) was 15 nM and the TGI (IGROV1 ovarian) was 30.1 nM. The GI50 (KM12 colon) was < 10 nM, the TGI (KM12 colon) was < 10 nM and the GI50 (LOX IMVI melanoma) was < 10 nM. For the same compound, the TGI (LOX IMVI melanoma) was < 10 nM, the GI50 (M14 melanoma) was < 10 nM and the TGI (M14 melanoma) was 19.1 nM. The GI50 (MALME-3M melanoma) was < 10 nM, the TGI (MALME-3M melanoma) was 18.8 nM and the GI50 (MCF7 breast) was < 10 nM. For the same compound, the TGI (MCF7 breast) was 12.4 nM, the GI50 (MDA-MB-231 breast) was < 10 nM and the TGI (MDA-MB-231 breast) was < 10 nM. For the same compound, the GI50 (MDA-MB-435 melanoma) was < 10 nM, the TGI (MDA-MB-435 melanoma) was 21.5 nM and the GI50 (MDA-MB-468 breast) was < 10 nM. For the same compound, the TGI (MDA-MB-468 breast) was 16.1 nM, the GI50 (MOLT-4 leukemia) was < 10 nM and the TGI (MOLT-4 leukemia) was < 10 nM. The GI50 (NCI-H226 lung) was < 10 nM, the TGI (NCI-H226 lung) was < 10 nM and the GI50 (NCI-H23 lung) was < 10 nM. For the same compound, the TGI (NCI-H23 lung) was < 10 nM, the GI50 (NCI-H322M lung) was 15.5 nM and the TGI (NCI-H322M lung) was 33.7 nM. The GI50 (NCI-H460 NSCLC) was 18.2 nM, the TGI (NCI-H460 NSCLC) was 33.6 nM and the GI50 (NCI-H522 lung) was < 10 nM. It also gave a TGI (NCI-H522 lung) of 10.8 nM, a GI50 (NCI/ADR-RES ovarian) of 422 nM and a TGI (NCI/ADR-RES ovarian) of 1610 nM. For the same compound, the GI50 (OVCAR-3 ovarian) was < 10 nM, the TGI (OVCAR-3 ovarian) was < 10 nM and the GI50 (OVCAR-4 ovarian) was < 10 nM. It also gave a TGI (OVCAR-4 ovarian) of 18.3 nM, a GI50 (OVCAR-5 ovarian) of 17.3 nM and a TGI (OVCAR-5 ovarian) of 45.3 nM. For the same compound, the GI50 (OVCAR-8 ovarian) was 14.6 nM, the TGI (OVCAR-8 ovarian) was 28 nM and the GI50 (PC-3 prostate) was 10.5 nM. The TGI (PC-3 prostate) was 23.3 nM, the GI50 (RPMI-8226 leukemia) was < 10 nM and the TGI (RPMI-8226 leukemia) was < 10 nM. The GI50 (RXF 393 renal) was < 10 nM, the TGI (RXF 393 renal) was < 10 nM and the GI50 (SF-268 CNS) was < 10 nM. For the same compound, the TGI (SF-268 CNS) was < 10 nM, the GI50 (SF-295 CNS) was 13.2 nM and the TGI (SF-295 CNS) was 26.1 nM. The GI50 (SF-539 CNS) was < 10 nM, the TGI (SF-539 CNS) was < 10 nM and the GI50 (SK-MEL-28 melanoma) was 17.2 nM. The TGI (SK-MEL-28 melanoma) was 36.8 nM, the GI50 (SK-MEL-5 melanoma) was < 10 nM and the TGI (SK-MEL-5 melanoma) was 21.6 nM. The GI50 (SK-OV-3 ovarian) was 14.1 nM, the TGI (SK-OV-3 ovarian) was 33.6 nM and the GI50 (SN12C renal) was 15 nM. The TGI (SN12C renal) was 29.1 nM, the GI50 (SNB-19 CNS) was 12.3 nM and the TGI (SNB-19 CNS) was 38.8 nM. The GI50 (SNB-75 CNS) was 15.4 nM, the TGI (SNB-75 CNS) was 30.6 nM and the GI50 (SR leukemia) was < 10 nM. For the same compound, the TGI (SR leukemia) was < 10 nM, the GI50 (SW-620 colon) was < 10 nM and the TGI (SW-620 colon) was < 10 nM. For the same compound, the GI50 (T-47D breast) was < 10 nM, the TGI (T-47D breast) was 18 nM and the GI50 (TK-10 renal) was 21.2 nM. The TGI (TK-10 renal) was 54 nM, the GI50 (U251 glioblastoma) was < 10 nM and the TGI (U251 glioblastoma) was 21.2 nM. For the same compound, the GI50 (UACC-257 melanoma) was 14.6 nM, the TGI (UACC-257 melanoma) was 28.8 nM and the GI50 (UACC-62 melanoma) was < 10 nM. For the same compound, the TGI (UACC-62 melanoma) was 19.3 nM, the GI50 (UO-31 renal) was 35.9 nM and the TGI (UO-31 renal) was 110 nM.
